Measured values: patent publication US20060167098A1, “Method for the treatment of diseases linked to an accumulation of triglycerides and cholesterol” (Institut National De La Sante ET De LA Recherche Medicale …, priority 2003, published 2006)

Columns and labels:
Assay type in all cases: in vivo
[1] = Plasma lipids in ob/ob mice, 6 weeks, 48-hour fast
Description: (§1) Plasma lipids (triglycerides, total cholesterol, phospholipids) were measured on an automatic analyser (Hitachi 717®). The commercial kits used to assess triglycerides, total cholesterol and phospholipids on this analyser were all from bioMérieux (references 61238, 61219 and 61491, respectively). Plasma non esterified fatty acids (NEFA) were assessed by using a commercial kit (Wako, reference 994-75409). Hepatic and plasma lipids were performed at the end of six weeks of treatment in animals that have been fasted for 48 hours. Triglycerides and HDL-cholesterol were also assessed after 2 months (in the fed state) or after 4 months of treatment (after an overnight fast).
Plasma lipids were assessed in ob/ob mice fed with a standard diet and receiving or not β-aminoisobutyric acid (BAIBA) in the drinking water during 6 weeks. These animals (7 controls and 10 treated with BAIBA) were those used for the determination of hepatic lipids (see above, paragraph II-b). At the end of the 6 weeks of treatment, mice were submitted to a 48-hour period of fast. Samples of blood were then collected (from the retroorbital sinus) for the assessment of plasma triglycerides, phospholipids and total cholesterol and mice were subsequently killed for assessment of liver triglycerides (see above). In this experiment, BAIBA decreased by 5, 23 and 19%, respectively plasma triglycerides, phospholipids and total cholesterol. The results are submitted in FIG. 7.

[2] = Plasma glucose, insulin, adiponectin and leptin in lean mice, standard diet, 6 weeks, 48 hours fast; conditions: 100 mg/kg/day 6 weeks, fasted 48 hours
Description: Plasma glucose was measured on an automatic analyser (Synchron LX20 from Beckman Coulter) with a commercial kit (kit n°472500 from Beckman).
Plasma insulin, adiponectin and leptin were measured by radioimmunoassay (RIA). Insulin was measured with the Insulin-CT kit from Cis Bio International (Gif-sur-Yvette, France), whereas plasma leptin and adiponectin were assessed with kits from Linco Research Inc. (St Charles, Mo.). Leptin was not measured in ob/ob mice since these animals are genetically leptin-deficient (Friedman J. M., Halaas J. L., 1998, Nature 395: 763-770). Results regarding insulin were expressed as recommended by kit manufacturer.
Glucose, insulin, adiponectine and leptin were assessed in lean mice fed with the standard diet and receiving (13 mice) or not (12 mice) 100 mg/kg/day of β-aminoisobutyric acid in the drinking water for 6 weeks.
At the end of the 6-weeks period of treatment, mice were submitted to a fasting period for 48 hours. Plasma glucose, insulin and adiponectin were not changed in treated mice, but a trend toward lower leptin levels was observed. Indeed, plasma leptin was 3.72±0.59 and 3.14±0.34 ng/ml, respectively in control mice (n=12) and mice treated with β-aminoisobutyric acid (n=13). Leptin is an adipokine mainly secreted by adipose tissue and its plasma levels in human and mice are highly correlated with the whole adipose tissue mass (Friedman J. M. and Hallas J. L., 1998, Nature 395: 763-770). Thus, data regarding plasma leptin are in keeping with the observation that β-aminoisobutyric acid limits body fat accumulation in lean mice.

[3] = Plasma lipids in lean mice fed with a standard diet, 6 weeks, not fasted; conditions: 100 mg/kg/day 6 weeks
Description: as §1
Plasma lipids were assessed in lean mice fed with a standard diet and receiving or not of 100 mg/kg/day of β-aminoisobutyric acid (BAIBA) in the drinking water during 6 weeks. There were six animals per group. At the end of the 6 weeks of treatment, mice were not fasted and samples of blood were then collected for the assessment of plasma triglycerides and total cholesterol. […] Indeed, plasma triglycerides were 3.18±0.23 and 2.95±0.21 mmol/L, respectively in control and treated mice whereas plasma total cholesterol was 5.35±0.35 and 5.23±0.28 mmol/L, respectively in control and treated mice.

[4] = Plasma HDL-cholesterol and triglycerides in ob/ob mice during a 4-month treatment
Description: as §1
Plasma HDL-cholesterol and alanine aminotransferase (ALT) were measured on an automatic analyser (Olympus AU400®) with commercial kits (Olympus Diagnostica GmbH, references OSR6187 and OSR6107, respectively).
In this series of experiments, plasma lipids, and especially HDL-cholesterol were assessed in ob/ob mice during a 4-month period of treatment. Mice were fed with standard diet. Ob/ob mice were treated for 4 months with β-aminoisobutyric acid, administered either at the usual dose (100 mg/kg/day) or at a higher dose (500 mg/kg/day). After two months, measurements were done in the fed state, while at the end of the treatment (i.e. after 4 months) plasma parameters were assessed after a overnight fasting period (i.e. 15 hours). One mice in the control group died between the third and fourth month of treatment.
The number of mice at the end of the experiment was 6,7 and 8, respectively in the control group and the groups treated with 100 and 500 mg/kg/day of β-aminoisobutyric acid. It is noteworthy that the animals studied in this experiment are the same than those cholesterol. Indeed, HDL-cholesterol was 3.26±0.33, 3.45±0.31 and 3.64±0.31 mmol/L, respectively in control mice and mice treated with 100 and 500 mg/kg/day of β-aminoisobutyric acid. Plasma triglycerides tended to be decreased in treated mice. Triglycerides were indeed 1.37±0.13, 1.09±0.06 and 1.25±0.17 mmol/L, respectively in control mice and mice treated with 100 and 500 mg/kg/day of β-aminoisobutyric acid.

[5] = 100 mg/kg/day, after 4 months, fasted state
[6] = 100 mg/kg/day, first time point (two months, fed state)
[7] = 500 mg/kg/day, after 4 months, fasted state
[8] = 500 mg/kg/day, first time point (two months, fed state)

Compound: CC(CN)C(=O)O (racemic) [BAIBA, D,L-β-Aminoisobutyric acid]
- decrease of plasma phospholipids [1]: 23%
- decrease of plasma total cholesterol [1]: 19%
- decrease of plasma triglycerides [1]: 5%
- plasma triglycerides [1]: 1.32 ± 0.14 mmol/L
- plasma phospholipids ([1]; p<0.01): 4.07 ± 0.26 mmol/L
- plasma total cholesterol ([1]; p<0.05): 4.98 ± 0.34 mmol/L
- plasma adiponectin vs control [2]: not changed
- plasma glucose vs control [2]: not changed
- plasma insulin vs control [2]: not changed
- plasma leptin [2]: 3.14 ± 0.34 ng/mL
- plasma total cholesterol [3]: 5.23 ± 0.28 mmol/L
- plasma triglycerides [3]: 2.95 ± 0.21 mmol/L
- HDL-cholesterol [4, 5]: 4.01 ± 0.30 mmol/L
- plasma triglycerides [4, 5]: 1.34 ± 0.08 mmol/L
- HDL-cholesterol [4, 6]: 3.45 ± 0.31 mmol/L
- plasma triglycerides [4, 6]: 1.09 ± 0.06 mmol/L
- HDL-cholesterol [4, 7]: 3.98 ± 0.31 mmol/L
- plasma triglycerides [4, 7]: 1.26 ± 0.07 mmol/L
- HDL-cholesterol [4, 8]: 3.64 ± 0.31 mmol/L
- plasma triglycerides [4, 8]: 1.25 ± 0.17 mmol/L
